From patent US9487462B2, “Inhibitors of matrix metalloproteinases” (PharmaHungary 2000 Kft., priority 2010, dated 2016)
Like-named read-outs stand apart in the source and are kept apart here.

What was measured:
[1] = target: MMP1 (Homo sapiens (Human), UniProt P03956); test: MMP activity assay (fluorogenic substrate), MMP1; assay type: biochemical; conditions: Table 2; read-out: MM1 IC50
[2] = target: MMP2 (Homo sapiens, UniProt P08253); test: MMP activity assay (fluorogenic substrate), MMP2 catalytic domain; assay type: biochemical; conditions: Table 2; read-out: MMP2 IC50
Procedure: (§1) MMP activity assays were conducted as follows: MMP2, MMP9, MMP13 catalytic domain was expressed in E. coli in form of inclusion bodies followed by refolding and purification.
(§2) The Protocol of the Activity Assay:
(§3) Stock solution of substrate (Mca-Lys-Pro-Leu-Gly-Leu-Dpa-Ala-Arg-NH2) was prepared in DMSO at a concentration of 6 mM. Assays were performed in an assay buffer (50 mM Tris pH 7.5, 300 mM NaCl, 10 μM ZnSO4, 5 mM CaCl2, 0.005% Brij-35). The final DMSO concentration in all assays was 1.0%. […] The assays were carried out at 37° C. The fluorescence changes, resulting from the substrate cleavage, were detected using excitation at 340 nm and emission wavelength of 405 nm using a Wallac 1420 Microplate Reader. The reaction mixtures were preincubated with the inhibitors for 30 minutes. The reactions were started by the addition of MMP substrate, and the fluorescence intensity changes were measured after 60 minutes. The obtained fluorescence values were normalized and % inhibition values calculated. Dose response curves were determined from 6 concentration points using three fold dilution steps, each concentration point was determined in duplicate. IC50 values were calculated from the dose response curves.

[3] = target: MMP9 (Homo sapiens, UniProt P14780); test: MMP activity assay (fluorogenic substrate), MMP9 catalytic domain; assay type: biochemical; conditions: Table 2
Procedure: as §1, §2, §3

[4] = target: MMP13 (Homo sapiens (Human), UniProt P45452); test: MMP activity assay (fluorogenic substrate), MMP13 catalytic domain; assay type: biochemical
Procedure: as §1, §2
as §3, with “The fluorescence changes, resulting from the substrate cleavage, were detected using excitation at 340 nm and emission wavelength of 405 nm using a Wallac 1420 Microplate Reader.” left out

[5] = Cytotoxicity, alamarBlue viability, MRC-5; assay type: cell-based; conditions: human, MRC-5 fibroblast cells, 48 hours incubation, read-out: MRC-5 LC50
Procedure: (§4) Beside the inhibitory effect on MMPs we tested the cytotoxicity of the selected compounds. These measurements were done in parallel on two cell lines. One of them was the healthy human fibroblast cell line MRC-5 while the other was the human colon tumor cell line HCT116. The viability of the cells was monitored using alamarBlue. This dye is reduced by the cells resulting in an increased fluorescent signal which is proportional to the number of living cells. Cells were incubated with the dilutions of the tested compounds for 48 hours then alamarBlue was added to them for 4 hours. After that the fluorescence changes were detected using excitation at 540 nm and emission wavelength of 590 nm by a Wallac 1420 Microplate Reader. IC50 values were determined for the compounds using six concentrations and duplicate points for each concentration.

[6] = Cytotoxicity, alamarBlue viability, HCT116; assay type: cell-based; conditions: human, HCT116 colon tumor cells, 48 hours incubation, read-out: HCT116 LC50
Procedure: as §4

[7] = target: MMP-2 (Rattus norvegicus (Rat), UniProt P33436); test: In vitro zymography assay (gelatin), MMP-2; assay type: biochemical
Procedure: MMP-2 and MMP-9 enzymes were isolated from rat hearts and from rat spleen while human, recombinant MMP-1 and MMP-13 enzymes used were commercial. MMP-2, -9, -13 enzymes were separated by electrophoresis during non-reducing conditions on 8% SDS-polyacrylamide gels copolymerized with 2 mg/ml gelatin from porcine skin (Sigma Aldrich) while MMP-1 was separated under the same conditions on 8% SDS-polyacrylamide gels copolymerized with 2 mg/ml casein (Sigma Aldrich). […] In case of MMP-13 p-aminophenylmercuric acetate (APMA) was used for enzyme activation at 37° C. for 30 min. After electrophoresis, gels were washed in 2.5% Triton-X 100 with agitation and then incubated for 20 hrs at 37° C. in enzyme incubation buffer (50 mM Tris-HCl, pH 7.5, containing 5 mM CaCl2, 200 mM NaCl) with or without MMP inhibitor. Zymographic gels were stained in Coomassie Brilliant Blue R-250 and de-stained. Gelatin and casein zymograms were scanned. MMP activity is detected as a white zone on a blue background and the clear bands in the gel can be quantified by densitometry. The obtained density values were measured and % inhibition values calculated (Kupai et al., 2010). The table below summarizes the prescreen inhibition values determined for different MMP inhibitors on MMP1, -2, -9, -13.

[8] = tested on: neonatal rat cardiac myocytes; test: Cytoprotective effect in cardiac myocytes subjected to hypoxia and reoxygenation; assay type: cell-based
Procedure: Neonatal rat hearts were digested and isolated cardiomyocytes were plated onto 24-well plastic plates at […]. The cells were maintained at 37° C. in a humidified atmosphere of 5% CO2 and 95% air in a CO2 incubator until confluence was reached. Cultures at day 3 were used for treatments. Cells were kept under normoxic or simulated ischemic conditions, i.e. the growth medium was changed to a normoxic or hypoxic solution and the cells were incubated under 95% air and 5% CO2 or 95% N2 and 5% CO2 at 37° C. for 4 h, respectively as described in detail (Gorbe A, Giricz Z, Szunyog A, Csont T, Burley D S, Baxter G F, Ferdinandy P. Role of cGMP-PKG signaling in the protection of neonatal rat cardiac myocytes subjected to simulated ischemia/reoxygenation. Basic Res Cardiol. 105:643-650, 2010). The positive control ilomastate (0.5 microM) and MMP-inhibitors at different effective concentrations (EC 5, EC 10, EC 20, and EC50 as determined in previous test examples) were applied during normoxia or simulated ischemia and also during reoxygenation. The vehicle was DMSO. Cell viability was determined after Calcein A M fluorescent staining as described (Karliner J S, Honbo N, Summers K, Gray M O, Goetzl E J. The lysophospholipids sphingosine-1-phosphate and lysophosphatidic acid enhance survival during hypoxia in neonatal rat cardiac myocytes. J Mol Cell Cardiol, 33:1713-7, 2001). Total cell count was determined after digitonin treatment to permeabilize the cells by using propidium iodine fluorescent staining (Roy S S, Hajnoczky G. Calcium, mitochondria and apoptosis studied by fluorescence measurements. Methods. 46:213-223, 2008).

Sequence of MMP1 (P03956 100-469, species assumed): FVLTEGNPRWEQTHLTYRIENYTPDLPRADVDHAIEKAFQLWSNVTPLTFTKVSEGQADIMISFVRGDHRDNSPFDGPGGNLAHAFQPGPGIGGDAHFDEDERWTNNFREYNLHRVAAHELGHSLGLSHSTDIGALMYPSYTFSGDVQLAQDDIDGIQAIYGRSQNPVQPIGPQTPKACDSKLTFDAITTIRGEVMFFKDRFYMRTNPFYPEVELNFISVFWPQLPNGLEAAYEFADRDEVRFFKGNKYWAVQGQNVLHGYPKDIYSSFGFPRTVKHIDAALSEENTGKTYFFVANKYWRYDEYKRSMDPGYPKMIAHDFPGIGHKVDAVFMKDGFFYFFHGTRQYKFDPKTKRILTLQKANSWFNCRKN
Sequence of MMP-2 (P33436 110-662): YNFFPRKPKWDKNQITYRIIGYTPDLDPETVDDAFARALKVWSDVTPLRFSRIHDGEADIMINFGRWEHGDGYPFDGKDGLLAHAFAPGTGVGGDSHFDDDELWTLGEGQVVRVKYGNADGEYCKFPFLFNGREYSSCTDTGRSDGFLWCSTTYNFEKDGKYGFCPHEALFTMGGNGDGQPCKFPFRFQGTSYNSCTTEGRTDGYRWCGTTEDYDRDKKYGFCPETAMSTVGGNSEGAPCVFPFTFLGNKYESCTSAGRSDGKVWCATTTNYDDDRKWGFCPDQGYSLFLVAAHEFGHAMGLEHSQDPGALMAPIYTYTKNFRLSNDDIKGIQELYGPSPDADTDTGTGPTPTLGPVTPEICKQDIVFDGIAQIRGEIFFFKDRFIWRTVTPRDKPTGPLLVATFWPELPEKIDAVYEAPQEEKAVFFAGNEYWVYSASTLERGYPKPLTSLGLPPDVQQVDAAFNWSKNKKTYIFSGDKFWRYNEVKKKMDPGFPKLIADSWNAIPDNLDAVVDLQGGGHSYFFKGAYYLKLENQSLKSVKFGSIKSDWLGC

IC50 [1] [µM] | IC50 [2] [µM] | IC50 [3] [µM] | IC50 ([4]; Table 2, read-out: MMP13 IC50) [µM] | Compound | CC50 at 48 h [5] [µM] | CC50 at 48 h [6] [µM] | further results
325 | > 500 | > 500 | 7.5 | CCOC(=O)c1csc(CN(Cc2ccncc2)Cc2ccc(OCc3ccccc3)cc2)n1 [Compound 20, Ethyl 2-[({[4-(benzyloxy)phenyl]methyl}(pyridin-4-ylmethyl)amino)methyl]-1,3-thiazole-4-carboxylate] | 13 | 16 | 
> 500 | > 500 | > 500 | 34 | Cn1cc(C(F)(F)F)nc1CN(Cc1ccc(F)cc1)Cc1ccc(OCc2ccccc2)cc1 [Compound 26, {[4-(Benzyloxy)phenyl]methyl}[(4-fluorophenyl)methyl]{[1-methyl-4-(trifluoromethyl)-1H-imidazol-2-yl]methyl}amine] | 40 | 25 | 
235 | > 500 | > 500 | 10 | O=C(O)c1c[nH]c(CNCc2ccc(OCc3cccnc3)cc2)n1 [Compound 31, 2-[({[4-(Pyridin-3-ylmethoxy)phenyl]methyl}amino)methyl]-1H-imidazole-4-carboxylic acid] | 200 | 70 | Cytoprotective effect, % cell survival as compared to vehicle DMSO ([8]; normoxia, EC5 concentration 0.3 microM): 97 ± 4%; Cytoprotective effect, % cell survival as compared to vehicle DMSO ([8]; normoxia, EC10 concentration 0.6 microM): 102 ± 5%; Cytoprotective effect, % cell survival as compared to vehicle DMSO ([8]; normoxia, EC20 concentration 1.2 microM): 104 ± 3%; Cytoprotective effect, % cell survival as compared to vehicle DMSO ([8]; normoxia, EC50 concentration 2.5 microM): 105 ± 4%; Cytoprotective effect, % cell survival as compared to vehicle DMSO ([8]; simulated ischemia, EC5 concentration 0.3 microM): 109 ± 5%; Cytoprotective effect, % cell survival as compared to vehicle DMSO ([8]; simulated ischemia, EC10 concentration 0.6 microM): 103 ± 4%; Cytoprotective effect, % cell survival as compared to vehicle DMSO ([8]; simulated ischemia, EC20 concentration 1.2 microM): 111 ± 4%; Cytoprotective effect, % cell survival as compared to vehicle DMSO ([8]; simulated ischemia, EC50 concentration 2.5 microM): 147 ± 2 %
90 | > 500 | 200 | 31 | CCOC(=O)c1csc(CN(Cc2ccc(F)cc2)Cc2ccc(-c3ccccc3)cc2)n1 [Compound 32, 2-{[Biphenyl-4-ylmethyl-(4-fluoro-benzyl)-amino]-methyl}-thiazole-4-carboxylic acid ethylester] | 13 | 0.7 | 

Further lines, the compound ahead of its results:

Compound | IC50 [1] [µM] | IC50 [2] [µM] | IC50 [3] [µM] | IC50 ([4]; Table 2, read-out: MMP13 IC50) [µM] | CC50 at 48 h [5] [µM] | CC50 at 48 h [6] [µM] | further results
O=C(O)c1csc(CN(Cc2ccc(OCc3ccccc3)cc2)Cc2cccc(F)c2)n1 [Compound 5, 2-[({[4-(Benzyloxy)phenyl]methyl}[(3-fluorophenyl)methyl]amino)methyl]-1,3-thiazole-4-carboxylic acid] | 6 | 25 | 9.8 | 4.7 | 43 | 3.5 | % inhibition MMP-2 (72 kDa) ([7]; 1 μM, % ± SD): No inhibition; inhibition at 100 µM ([7]; 100 μM, % ± SD, read-out: % inhibition MMP-2 (72 kDa)): 11.1 ± 1.58%
O=C(O)c1csc(CN(Cc2ccc(F)cc2)Cc2ccc(-c3ccccc3)cc2)n1 [Compound 15, 2-({[(4-Fluorophenyl)methyl][(4-biphenyl)methyl]amino}methyl)-1,3-thiazole-4-carboxylic acid] | 17 | 30 | 20 | 3 | 2.9 | 1 | Cytoprotective effect, % cell survival as compared to vehicle DMSO ([8]; normoxia, EC5 concentration 3.0 microM): 95 ± 2%; Cytoprotective effect, % cell survival as compared to vehicle DMSO ([8]; normoxia, EC10 concentration 10.0 microM): 99 ± 2%; Cytoprotective effect, % cell survival as compared to vehicle DMSO ([8]; normoxia, EC20 concentration 30.0 microM): 100 ± 2%; Cytoprotective effect, % cell survival as compared to vehicle DMSO ([8]; normoxia, EC50 concentration 90.0 microM): 83 ± 2 %; Cytoprotective effect, % cell survival as compared to vehicle DMSO ([8]; simulated ischemia, EC5 concentration 3.0 microM): 109 ± 5%; Cytoprotective effect, % cell survival as compared to vehicle DMSO ([8]; simulated ischemia, EC10 concentration 10.0 microM): 117 ± 5 %; Cytoprotective effect, % cell survival as compared to vehicle DMSO ([8]; simulated ischemia, EC20 concentration 30.0 microM): 114 ± 4 %; Cytoprotective effect, % cell survival as compared to vehicle DMSO ([8]; simulated ischemia, EC50 concentration 90.0 microM): 88 ± 4%
CCOC(=O)c1csc(CN(Cc2ccc(OCc3ccccc3)cc2)Cc2cccnc2)n1 [Compound 16, Ethyl 2-[({[4-(benzyloxy)phenyl]methyl}(pyridin-3-ylmethyl)amino)methyl]-1,3-thiazole-4-carboxylate] | 340 | > 500 | 280 | 5 | 1.9 | 1.8 | Cytoprotective effect, % cell survival as compared to vehicle DMSO ([8]; normoxia, EC5 concentration 4.0 microM): 105 ± 2%; Cytoprotective effect, % cell survival as compared to vehicle DMSO ([8]; normoxia, EC10 concentration 8.0 microM): 108 ± 3 %; Cytoprotective effect, % cell survival as compared to vehicle DMSO ([8]; normoxia, EC20 concentration 16.0 microM): 99 ± 2%; Cytoprotective effect, % cell survival as compared to vehicle DMSO ([8]; normoxia, EC50 concentration 32.0 microM): 91 ± 2 %; Cytoprotective effect, % cell survival as compared to vehicle DMSO ([8]; simulated ischemia, EC5 concentration 4.0 microM): 119 ± 3 %; Cytoprotective effect, % cell survival as compared to vehicle DMSO ([8]; simulated ischemia, EC10 concentration 8.0 microM): 119 ± 3 %; Cytoprotective effect, % cell survival as compared to vehicle DMSO ([8]; simulated ischemia, EC20 concentration 16.0 microM): 122 ± 4 %; Cytoprotective effect, % cell survival as compared to vehicle DMSO ([8]; simulated ischemia, EC50 concentration 32.0 microM): 113 ± 4 %
CNC(=O)[C@H](Cc1c[nH]c2ccccc12)NC(=O)[C@@H](CC(=O)NO)CC(C)C [ilomastat, reference compound] |  |  |  |  |  |  | IC50 ([4]; read-out: IC50 on MMP13): 0.0002 µM; IC50 [7]: 0.00071 µM; cytoprotective effect as compared to vehicle-treated cells ([8]; positive control, 0.5 microM): approximately 120%
